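Briefly, cells in 96-well plates were exposed to five compound concentrations for 48 h, and endpoints were estimated by linear interpolation. At the GI50, growth is halved. TGI: total growth inhibition.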
Key:
Assay in all cases: growth of human tumour cells (NCI), 48 h
SF-295 CNS = test system: SF-295 CNS
A498 renal = test system: A498 renal
NCI-H522 lung = test system: NCI-H522 lung
M14 melanoma = test system: M14 melanoma
HT29 colon = test system: HT29 colon
OVCAR-4 ovarian = test system: OVCAR-4 ovarian
MALME-3M melanoma = test system: MALME-3M melanoma
DU-145 prostate = test system: DU-145 prostate
PC-3 prostate = test system: PC-3 prostate
T-47D breast = test system: T-47D breast
TK-10 renal = test system: TK-10 renal
HOP-62 NSCLC = test system: HOP-62 NSCLC
HCT-15 colon = test system: HCT-15 colon
HCC-2998 colon = test system: HCC-2998 colon
OVCAR-5 ovarian = test system: OVCAR-5 ovarian
EKVX NSCLC = test system: EKVX NSCLC
786-0 renal = test system: 786-0 renal
SW-620 colon = test system: SW-620 colon
SK-MEL-28 melanoma = test system: SK-MEL-28 melanoma
SNB-75 CNS = test system: SNB-75 CNS
HS 578T breast = test system: HS 578T breast
OVCAR-8 ovarian = test system: OVCAR-8 ovarian
K-562 leukemia = test system: K-562 leukemia
BT-549 breast = test system: BT-549 breast
RPMI-8226 leukemia = test system: RPMI-8226 leukemia
SNB-19 CNS = test system: SNB-19 CNS
RXF 393 renal = test system: RXF 393 renal
SF-539 CNS = test system: SF-539 CNS
CCRF-CEM leukemia = test system: CCRF-CEM leukemia
SF-268 CNS = test system: SF-268 CNS
HCT-116 colon = test system: HCT-116 colon
SK-OV-3 ovarian = test system: SK-OV-3 ovarian
NCI-H23 lung = test system: NCI-H23 lung
KM12 colon = test system: KM12 colon
CAKI-1 renal = test system: CAKI-1 renal
NCI/ADR-RES ovarian = test system: NCI/ADR-RES ovarian
SK-MEL-2 melanoma = test system: SK-MEL-2 melanoma
MOLT-4 leukemia = test system: MOLT-4 leukemia
NCI-H460 lung = test system: NCI-H460 lung
A549 NSCLC = test system: A549 NSCLC
UO-31 renal = test system: UO-31 renal
OVCAR-3 ovarian = test system: OVCAR-3 ovarian
UACC-257 melanoma = test system: UACC-257 melanoma
SK-MEL-5 melanoma = test system: SK-MEL-5 melanoma
MCF7 breast = test system: MCF7 breast
HL-60(TB) leukemia = test system: HL-60(TB) leukemia
COLO 205 colon = test system: COLO 205 colon
SR leukemia = test system: SR leukemia
HOP-92 NSCLC = test system: HOP-92 NSCLC
LOX IMVI melanoma = test system: LOX IMVI melanoma
NCI-H226 lung = test system: NCI-H226 lung
SN12C renal = test system: SN12C renal
U251 CNS = test system: U251 CNS
UACC-62 melanoma = test system: UACC-62 melanoma
MDA-MB-231 breast = test system: MDA-MB-231 breast
MDA-MB-435 = test system: MDA-MB-435
ACHN renal = test system: ACHN renal

O=C(/C=C/c1ccc(O)c(O)c1)NCCc1ccc(-c2ccccc2)cc1
TGI (SF-295 CNS): > 100000 nM
TGI (A498 renal): > 100000 nM
TGI (NCI-H522 lung): > 100000 nM
TGI (M14 melanoma): > 100000 nM
TGI (HT29 colon): > 100000 nM
TGI (OVCAR-4 ovarian): > 100000 nM
TGI (MALME-3M melanoma): 53900 nM
TGI (DU-145 prostate): > 100000 nM
TGI (PC-3 prostate): > 100000 nM
TGI (T-47D breast): > 100000 nM
TGI (TK-10 renal): 63300 nM
TGI (HOP-62 NSCLC): > 100000 nM
TGI (HCT-15 colon): > 100000 nM
TGI (HCC-2998 colon): > 100000 nM
TGI (OVCAR-5 ovarian): > 100000 nM
TGI (EKVX NSCLC): > 100000 nM
TGI (786-0 renal): > 100000 nM
TGI (SW-620 colon): > 100000 nM
TGI (SK-MEL-28 melanoma): > 100000 nM
TGI (SNB-75 CNS): > 100000 nM
TGI (HS 578T breast): > 100000 nM
TGI (OVCAR-8 ovarian): > 100000 nM
TGI (K-562 leukemia): 80400 nM
TGI (BT-549 breast): > 100000 nM
TGI (RPMI-8226 leukemia): > 100000 nM
TGI (SNB-19 CNS): > 100000 nM
TGI (RXF 393 renal): > 100000 nM
TGI (SF-539 CNS): > 100000 nM
TGI (CCRF-CEM leukemia): > 100000 nM
TGI (SF-268 CNS): > 100000 nM
TGI (HCT-116 colon): > 100000 nM
TGI (SK-OV-3 ovarian): > 100000 nM
TGI (NCI-H23 lung): > 100000 nM
TGI (KM12 colon): > 100000 nM
TGI (CAKI-1 renal): > 100000 nM
TGI (NCI/ADR-RES ovarian): > 100000 nM
TGI (SK-MEL-2 melanoma): > 100000 nM
TGI (MOLT-4 leukemia): > 100000 nM
TGI (NCI-H460 lung): > 100000 nM
TGI (A549 NSCLC): > 100000 nM
TGI (UO-31 renal): > 100000 nM
TGI (OVCAR-3 ovarian): 65700 nM
TGI (UACC-257 melanoma): > 100000 nM
TGI (SK-MEL-5 melanoma): > 100000 nM
TGI (MCF7 breast): > 100000 nM
TGI (HL-60(TB) leukemia): > 100000 nM
TGI (COLO 205 colon): > 100000 nM

C/C=C(/C)C(=O)OC1C=C(CO)C(=O)C(OC(=O)C(C)(O)C(C)Cl)C1C(C)C (configuration not stated)
GI50 (SF-295 CNS): 1940 nM
TGI (SF-295 CNS): 4790 nM
GI50 (A498 renal): 1900 nM
TGI (A498 renal): 3870 nM
GI50 (NCI-H522 lung): 603 nM
TGI (NCI-H522 lung): 2370 nM
GI50 (SR leukemia): 255 nM
TGI (SR leukemia): 2160 nM
GI50 (M14 melanoma): 1600 nM
TGI (M14 melanoma): 3500 nM
GI50 (HOP-92 NSCLC): 1770 nM
TGI (HOP-92 NSCLC): 3570 nM
GI50 (HT29 colon): 1470 nM
TGI (HT29 colon): 3560 nM
GI50 (OVCAR-4 ovarian): 1870 nM
TGI (OVCAR-4 ovarian): 3950 nM
GI50 (MALME-3M melanoma): 474 nM
TGI (MALME-3M melanoma): 1850 nM
GI50 (LOX IMVI melanoma): 1310 nM
TGI (LOX IMVI melanoma): 2820 nM
GI50 (DU-145 prostate): 1130 nM
TGI (DU-145 prostate): 2400 nM
GI50 (PC-3 prostate): 1450 nM
TGI (PC-3 prostate): 3300 nM
GI50 (NCI-H226 lung): 3720 nM
TGI (NCI-H226 lung): 13000 nM
GI50 (TK-10 renal): 1550 nM
TGI (TK-10 renal): 3050 nM
GI50 (HOP-62 NSCLC): 2100 nM
TGI (HOP-62 NSCLC): 4890 nM
GI50 (HCT-15 colon): 772 nM
TGI (HCT-15 colon): 2360 nM
GI50 (HCC-2998 colon): 1790 nM
TGI (HCC-2998 colon): 3350 nM
GI50 (OVCAR-5 ovarian): 971 nM
TGI (OVCAR-5 ovarian): 2720 nM
GI50 (EKVX NSCLC): 2190 nM
TGI (EKVX NSCLC): 4900 nM
GI50 (SN12C renal): 731 nM
TGI (SN12C renal): 2110 nM
GI50 (786-0 renal): 1670 nM
TGI (786-0 renal): 3120 nM
GI50 (SW-620 colon): 1690 nM
TGI (SW-620 colon): 4080 nM
GI50 (SK-MEL-28 melanoma): 1460 nM
TGI (SK-MEL-28 melanoma): 2980 nM
GI50 (HS 578T breast): 4780 nM
TGI (HS 578T breast): 24400 nM
GI50 (OVCAR-8 ovarian): 1560 nM
TGI (OVCAR-8 ovarian): 5300 nM
GI50 (K-562 leukemia): 396 nM
TGI (K-562 leukemia): 12500 nM
GI50 (BT-549 breast): 1950 nM
TGI (BT-549 breast): 4710 nM
GI50 (U251 CNS): 1380 nM
TGI (U251 CNS): 2800 nM
GI50 (UACC-62 melanoma): 744 nM
TGI (UACC-62 melanoma): 2050 nM
GI50 (RPMI-8226 leukemia): 429 nM
TGI (RPMI-8226 leukemia): 2650 nM
GI50 (SNB-19 CNS): 1480 nM
TGI (SNB-19 CNS): 2910 nM
GI50 (RXF 393 renal): 1600 nM
TGI (RXF 393 renal): 3130 nM
GI50 (SF-539 CNS): 1280 nM
TGI (SF-539 CNS): 2620 nM
GI50 (CCRF-CEM leukemia): 327 nM
TGI (CCRF-CEM leukemia): 2050 nM
GI50 (SF-268 CNS): 2190 nM
TGI (SF-268 CNS): 5080 nM
GI50 (MDA-MB-231 breast): 758 nM
TGI (MDA-MB-231 breast): 2260 nM
GI50 (HCT-116 colon): 1070 nM
TGI (HCT-116 colon): 2490 nM
GI50 (MDA-MB-435): 1350 nM
TGI (MDA-MB-435): 2830 nM
GI50 (SK-OV-3 ovarian): 4500 nM
TGI (SK-OV-3 ovarian): 14900 nM
GI50 (NCI-H23 lung): 1840 nM
TGI (NCI-H23 lung): 4420 nM
GI50 (KM12 colon): 1750 nM
TGI (KM12 colon): 3470 nM
GI50 (CAKI-1 renal): 1610 nM
TGI (CAKI-1 renal): 2980 nM
GI50 (NCI/ADR-RES ovarian): 2310 nM
TGI (NCI/ADR-RES ovarian): 13300 nM
GI50 (SK-MEL-2 melanoma): 2060 nM
TGI (SK-MEL-2 melanoma): 4290 nM
GI50 (ACHN renal): 829 nM
TGI (ACHN renal): 2060 nM
GI50 (MOLT-4 leukemia): 301 nM
TGI (MOLT-4 leukemia): 4880 nM
GI50 (NCI-H460 lung): 2280 nM
TGI (NCI-H460 lung): 8620 nM
GI50 (A549 NSCLC): 2810 nM
TGI (A549 NSCLC): 9360 nM
GI50 (UO-31 renal): 1340 nM
TGI (UO-31 renal): 2640 nM
GI50 (OVCAR-3 ovarian): 648 nM
TGI (OVCAR-3 ovarian): 1980 nM
GI50 (UACC-257 melanoma): 1420 nM
TGI (UACC-257 melanoma): 3320 nM
GI50 (SK-MEL-5 melanoma): 1380 nM
TGI (SK-MEL-5 melanoma): 2750 nM
GI50 (MCF7 breast): 552 nM
TGI (MCF7 breast): 3090 nM
GI50 (HL-60(TB) leukemia): 358 nM
TGI (HL-60(TB) leukemia): 5740 nM
GI50 (COLO 205 colon): 1300 nM
TGI (COLO 205 colon): 2850 nM
